From patent US20260226493A1, “HERBICIDE RESISTANT PLANTS” (SYNGENTA CROP PROTECTION AG, priority 2023, published 2026)

What was measured:
Assay in all cases: BIO3-BIO1 mutant enzyme activity in the presence of herbicide, percentage inhibition (fluorometric DAPA assay)
Assay type in all cases: biochemical
Conditions in all cases: read-out: percentage inhibition
[1] = biological target: T1, Arabidopsis thaliana BIO3-BIO1 (BioDA) mutants (Arabidopsis thaliana, UniProt B0F481, Q517F)
T1 construct: with the predicted N-terminal mitochondrial transit peptide removed; 6xHis-tag (N); thrombin cleavage site (N); made in house; host or cells: E. coli BL21 (DE3) bioA
From the text: (§1) A pet-24 plasmid containing a DNA sequence encoding each identified variant mutant of BIO3-BIO1 derived from Arabidopsis thaliana from example 5 above, as shown in Table 13 below and as shown in full in SEQ ID NOs: 15 to 155, codon-optimised for expression in E. coli, with an N-terminal 6×His-tag and thrombin cleavage site and under control of a T7 promoter, and was synthesised by Twist Bioscience, in a similar manner to SEQ ID NO:311. These plasmids were then expressed in E. coli BL21 (DE3) bioA with 50 μg/mL kanamycin and 25 μg/mL chloramphenicol selection. Overnight cultures grown at 37° C. were used to inoculate 8×500 mL AIM in shake flasks at a ratio of 1:100. Cultures were grown at 37° C., 200 rpm for 3.5 hours and then overnight at 20° C. Cells were harvested by centrifugation for 30 minutes at 10 000 g. Cells were stored at −80° C. until extraction. 30 g of cell pellet from was thawed in 120 mL of IMAC buffer A (20 mM HEPES pH7.5, 25 mM imidazole, 500 mM sodium chloride, 0.15 mM pyridoxal phosphate, 0.5 mM TCEP, 1× complete Protease Inhibitor Tablet (Roche)). The resuspension was passed through a cell disrupter at 18 000 PSI and centrifuged at 50 000 g for 25 minutes at 4° C. The His-tagged BIO3-BIO1 protein was purified from the extract supernatant on an AKTA avant chromatography system (Cytiva) using a HisTrap FF column and eluted in IMAC buffer B ((20 mM HEPES pH7.5, 500 mM imidazole, 500 mM sodium chloride, 0.15 mM pyridoxal phosphate, 0.5 mM TCEP) followed by SEC using a HiLoad 26/60 Superdex200 column in SEC buffer (25 mM HEPES pH7.5, 150 mM sodium chloride, 0.15 mM pyridoxal phosphate, 0.5 mM TCEP). Protein concentration was measured and calculated using the absorbance at 280 nm. Extracts were diluted 1 in 4 and 10 uL was analysed by SDS PAGE.
(§2) To measure BIO3-BIO1 mutant enzyme activity in the presence of herbicide, herbicides were incubated with 20 μL of enzyme mix (100 mM EPPS pH 8.6, 0.1 mM pyridoxal phosphate, 0.1 mg/mL BSA, 50 nM BIO3-BIO1 enzyme) for 10 minutes at 20° C. in a well of a 96-well half-area black plate, followed by the addition of 20 μL of substrate mix (final concentration of 100 mM EPPS pH 8.6, 0.1 mM pyridoxal phosphate, 0.1 mg/mL BSA, 100 μM spermidine, 20 μM KAPA, 100 mM NaCO3) and further incubation for 75 minutes at 20° C. The reaction was terminated by the addition of 50 μL of derivatisation mix (final concentration of 250 mM borate NaOH pH 9.4, 3.6 mM o-phthalaldehyde, 7 mM β-mercaptoethanol, 17% (v/v) ethanol, 3.6% (v/v) methanol). The fluorescent product produced by the reaction of DAPA with o-phthalaldehyde and 7 mM β-mercaptoethanol was measured at 470 nm after excitation at 410 nm. The percentage inhibition was calculated as the activity in the presence of one of three concentrations of each herbicide compound A to M (note that the compounds labelled as A to M are identified hereinabove in the relevant section of the description) as a percentage of the activity in DMSO (Table 12 and 13). The percentage activity versus WT was also calculated and is shown in Table 13 and 14 (NT indicates mutation not tested in table 13, note that these mutations are tested at different compound concentrations for compounds L, M and C, and the results are shown in table 14).

[2] = biological target: T2, Arabidopsis thaliana BIO3-BIO1 (BioDA) mutants (Arabidopsis thaliana, UniProt B0F481, Y511F)
T2 construct: with the predicted N-terminal mitochondrial transit peptide removed; 6xHis-tag (N); thrombin cleavage site (N); made in house; host or cells: E. coli BL21 (DE3) bioA
From the text: as §1, §2

[3] = biological target: T3, Arabidopsis thaliana BIO3-BIO1 (BioDA) mutants (Arabidopsis thaliana, UniProt B0F481, Y511M)
T3 construct: with the predicted N-terminal mitochondrial transit peptide removed; 6xHis-tag (N); thrombin cleavage site (N); made in house; host or cells: E. coli BL21 (DE3) bioA
From the text: as §1, §2

[4] = biological target: T4, Arabidopsis thaliana BIO3-BIO1 (BioDA) mutants (Arabidopsis thaliana, UniProt B0F481, F348C)
T4 construct: with the predicted N-terminal mitochondrial transit peptide removed; 6xHis-tag (N); thrombin cleavage site (N); made in house; host or cells: E. coli BL21 (DE3) bioA
From the text: as §1, §2

[5] = biological target: T5, Arabidopsis thaliana BIO3-BIO1 (BioDA) mutants (Arabidopsis thaliana, UniProt B0F481, Y511C)
T5 construct: with the predicted N-terminal mitochondrial transit peptide removed; 6xHis-tag (N); thrombin cleavage site (N); made in house; host or cells: E. coli BL21 (DE3) bioA
From the text: as §1, §2

[6] = biological target: T6, Arabidopsis thaliana BIO3-BIO1 (BioDA) mutants (Arabidopsis thaliana, UniProt B0F481, F348Q)
T6 construct: with the predicted N-terminal mitochondrial transit peptide removed; 6xHis-tag (N); thrombin cleavage site (N); made in house; host or cells: E. coli BL21 (DE3) bioA
From the text: as §1, §2

[7] = biological target: T7, Arabidopsis thaliana BIO3-BIO1 (BioDA) mutants (Arabidopsis thaliana, UniProt B0F481, P510E)
T7 construct: with the predicted N-terminal mitochondrial transit peptide removed; 6xHis-tag (N); thrombin cleavage site (N); made in house; host or cells: E. coli BL21 (DE3) bioA
From the text: as §1, §2

[8] = biological target: T8, Arabidopsis thaliana BIO3-BIO1 (BioDA) mutants (Arabidopsis thaliana, UniProt B0F481, G700A)
T8 construct: with the predicted N-terminal mitochondrial transit peptide removed; 6xHis-tag (N); thrombin cleavage site (N); made in house; host or cells: E. coli BL21 (DE3) bioA
From the text: as §1, §2

[9] = biological target: T9, Arabidopsis thaliana BIO3-BIO1 (BioDA) mutants (Arabidopsis thaliana, UniProt B0F481, A609H)
T9 construct: with the predicted N-terminal mitochondrial transit peptide removed; 6xHis-tag (N); thrombin cleavage site (N); made in house; host or cells: E. coli BL21 (DE3) bioA
From the text: as §1, §2

[10] = biological target: T10, Arabidopsis thaliana BIO3-BIO1 (BioDA) mutants (Arabidopsis thaliana, UniProt B0F481, T512Q)
T10 construct: with the predicted N-terminal mitochondrial transit peptide removed; 6xHis-tag (N); thrombin cleavage site (N); made in house; host or cells: E. coli BL21 (DE3) bioA
From the text: as §1, §2

[11] = biological target: T11, Arabidopsis thaliana BIO3-BIO1 (BioDA) mutants (Arabidopsis thaliana, UniProt B0F481, G513A)
T11 construct: with the predicted N-terminal mitochondrial transit peptide removed; 6xHis-tag (N); thrombin cleavage site (N); made in house; host or cells: E. coli BL21 (DE3) bioA
From the text: as §1, §2

[12] = biological target: T12, Arabidopsis thaliana BIO3-BIO1 (BioDA) mutants (Arabidopsis thaliana, UniProt B0F481, Q350H)
T12 construct: with the predicted N-terminal mitochondrial transit peptide removed; 6xHis-tag (N); thrombin cleavage site (N); made in house; host or cells: E. coli BL21 (DE3) bioA
From the text: as §1, §2

T4 sequence (B0F481 23-833 F348C): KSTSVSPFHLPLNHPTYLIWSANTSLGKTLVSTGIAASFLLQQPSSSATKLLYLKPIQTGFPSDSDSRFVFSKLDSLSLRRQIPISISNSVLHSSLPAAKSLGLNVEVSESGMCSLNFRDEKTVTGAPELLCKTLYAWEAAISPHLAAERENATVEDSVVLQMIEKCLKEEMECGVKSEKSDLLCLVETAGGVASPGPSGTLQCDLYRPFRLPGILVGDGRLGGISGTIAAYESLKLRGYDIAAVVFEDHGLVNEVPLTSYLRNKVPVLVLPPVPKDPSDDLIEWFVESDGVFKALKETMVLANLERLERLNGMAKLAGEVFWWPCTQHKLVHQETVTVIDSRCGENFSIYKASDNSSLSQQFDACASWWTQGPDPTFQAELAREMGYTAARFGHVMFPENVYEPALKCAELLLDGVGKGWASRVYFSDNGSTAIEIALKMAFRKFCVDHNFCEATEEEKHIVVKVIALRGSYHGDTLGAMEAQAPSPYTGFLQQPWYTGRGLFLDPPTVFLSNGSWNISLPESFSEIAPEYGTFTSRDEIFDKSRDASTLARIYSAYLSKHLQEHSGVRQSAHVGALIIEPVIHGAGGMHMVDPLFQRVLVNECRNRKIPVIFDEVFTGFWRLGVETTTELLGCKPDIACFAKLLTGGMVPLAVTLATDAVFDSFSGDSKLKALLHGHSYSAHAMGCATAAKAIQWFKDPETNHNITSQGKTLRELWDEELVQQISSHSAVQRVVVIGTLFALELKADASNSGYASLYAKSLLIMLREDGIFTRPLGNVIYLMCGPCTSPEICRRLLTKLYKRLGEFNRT
T7 sequence (B0F481 23-833 P510E): as the sequence (B0F481 23-833 F348C) above, with C326F, P488E counted along it
T9 sequence (B0F481 23-833 A609H): as the sequence (B0F481 23-833 F348C) above, with C326F, A587H counted along it
T11 sequence (B0F481 23-833 G513A): as the sequence (B0F481 23-833 F348C) above, with C326F, G491A counted along it
T8 sequence (B0F481 23-833 G700A): as the sequence (B0F481 23-833 F348C) above, with C326F, G678A counted along it
T6 sequence (B0F481 23-833 F348Q): as the sequence (B0F481 23-833 F348C) above, with C326Q counted along it
T12 sequence (B0F481 23-833 Q350H): as the sequence (B0F481 23-833 F348C) above, with C326F, Q328H counted along it
T3 sequence (B0F481 23-833 Y511M): as the sequence (B0F481 23-833 F348C) above, with C326F, Y489M counted along it
T1 sequence (B0F481 23-833 Q517F): as the sequence (B0F481 23-833 F348C) above, with C326F, Q495F counted along it
T5 sequence (B0F481 23-833 Y511C): as the sequence (B0F481 23-833 F348C) above, with C326F, Y489C counted along it
T10 sequence (B0F481 23-833 T512Q): as the sequence (B0F481 23-833 F348C) above, with C326F, T490Q counted along it
T2 sequence (B0F481 23-833 Y511F): as the sequence (B0F481 23-833 F348C) above, with C326F, Y489F counted along it

With `CCOC(=O)c1nn(-c2ccc3c(c2)OC(F)(F)C(F)(F)O3)c2cccc(C(C)=O)c2c1=O` [Compound A, ethyl 5-acetyl-4-oxo-1-(2,2,3,3-tetrafluoro-1,4-benzodioxin-6-yl)cinnoline-3-carboxylate] the inhibition at 1 µM [1] was 20%, the inhibition at 1 µM [2] was 79% and the inhibition at 1 µM [3] was 59%. It also gave an inhibition at 1 µM [4] of 0%, an inhibition at 1 µM [5] of 0% and an inhibition at 1 µM [6] of 7%. For the same compound, the inhibition at 1 µM [7] was 26%, the inhibition at 1 µM [8] was 0% and the inhibition at 1 µM [9] was 0%. The inhibition at 1 µM [10] was 49%, the inhibition at 1 µM [11] was 64% and the inhibition at 1 µM [12] was 23%.
Work on `CCn1c(Cn2ccc(C(F)(F)F)n2)cc(=O)c(C(=O)O)c1-c1ccc(Cl)c(Cl)c1` [Compound L, 2-(3,4-dichlorophenyl)-1-ethyl-4-oxo-6-[[3-(trifluoromethyl)pyrazol-1-yl]methyl]pyridine-3-carboxylic acid] yielded an inhibition at 0.01 µM [4] of 0%, an inhibition at 0.075 µM [4] of 0% and an inhibition at 0.5 µM [4] of 29%. For the same compound, the inhibition at 0.01 µM [6] was 0%, the inhibition at 0.075 µM [6] was 0% and the inhibition at 0.5 µM [6] was 3%. It also gave an inhibition at 0.01 µM [7] of 0%, an inhibition at 0.075 µM [7] of 11% and an inhibition at 0.5 µM [7] of 59%. For the same compound, the inhibition at 0.01 µM [8] was 6%, the inhibition at 0.075 µM [8] was 6% and the inhibition at 0.5 µM [8] was 3%. For the same compound, the inhibition at 0.01 µM [9] was 0%, the inhibition at 0.075 µM [9] was 0% and the inhibition at 0.5 µM [9] was 0%. The inhibition at 0.01 µM [11] was 0%, the inhibition at 0.075 µM [11] was 57% and the inhibition at 0.5 µM [11] was 90%. For the same compound, the inhibition at 0.01 µM [12] was 0%, the inhibition at 0.075 µM [12] was 16% and the inhibition at 0.5 µM [12] was 38%.
